Source: ChEMBL document CHEMBL3885861, “Open TG-GATES”

Species: Rattus norvegicus
Test: Open TG-GATES - Regimen: Daily Repeat
Assay type: toxicity, organism-based, Sprague-Dawley
Parameters: regimen Daily Repeat, gender Male, age 6 weeks
Conditions: in vivo, po, route gavage; for APTT / Bas / Eos / Fbg / Hb / Ht / Lym / MCH / MCHC / MCV / Mono / Neu / Plat / RBC / Ret / WBC: tissue Blood; for KIDNEY_L / KIDNEY_R / KIDNEY_TOTAL: tissue Kidney; for ALP / ALT / AST / BUN / CRE / DBIL / GLC / IP / K / LDH / Na / PL / RALB / TBIL / TC / TG / TP / gamma-GTP: tissue Plasma
[1] = 30 mg/kg, 72 h, dose level Middle, time 3 day
[2] = 30 mg/kg, […], dose level Middle, time 7 day
[3] = 30 mg/kg, […], dose level Middle, time 14 day
[4] = 30 mg/kg, […], dose level Middle, time 28 day
[5] = 100 mg/kg, 72 h, dose level High, time 3 day
[6] = 100 mg/kg, […], dose level High, time 7 day
[7] = 100 mg/kg, […], dose level High, time 14 day
[8] = 100 mg/kg, […], dose level High, time 28 day

## CN(C)CCC=C1c2ccccc2COc2ccccc21 [DOXEPIN]
[1]
  TERMINAL_BW: 221 g
  APTT: 16.8 s
  Bas: 0%
  Eos: 0.8%
  Fbg: 336.2 mg/dL
  Hb: 13 g/dL
  Ht: 37.8%
  Lym: 73.4%
  MCH: 21.6 pg
  MCHC: 34.4%
  MCV: 62.9 fL
  Mono: 2.8%
  Neu: 22.6%
  Plat: 113.6 x10_4/uL
  RBC: 600.6 x10_4/ul
  Ret: 6.9%
  WBC: 66.4 x10_2/uL
  KIDNEY_L: 1 g
  KIDNEY_R: 1 g
  KIDNEY_TOTAL: 2 g
  ALP: 1714.2 IU/L
  ALT: 50 IU/L
  AST: 75 IU/L
  BUN: 15 mg/dL
  CRE: 0.2 mg/dL
  DBIL: 0.018 mg/dL
  GLC: 193.6 mg/dL
  IP: 7.3 mg/dL
  K: 4.5 meq/L
  LDH: 94 IU/L
  Na: 142.2 meq/L
  PL: 147.6 mg/dL
  RALB: 2.7 g/dL
  TBIL: 0.032 mg/dL
  TC: 81.2 mg/dL
  TG: 97 mg/dL
  TP: 5.9 g/dL
  gamma-GTP: 1.2 IU/L
[2]
  TERMINAL_BW: 252.6 g
  APTT: 18.3 s
  Bas: 0%
  Eos: 1%
  Fbg: 293.4 mg/dL
  Hb: 13.4 g/dL
  Ht: 38.2%
  Lym: 81.4%
  MCH: 21.5 pg
  MCHC: 35.1%
  MCV: 61.2 fL
  Mono: 2.6%
  Neu: 14.4%
  Plat: 115.8 x10_4/uL
  RBC: 624.8 x10_4/ul
  Ret: 5.8%
  WBC: 90.6 x10_2/uL
  KIDNEY_L: 1 g
  KIDNEY_R: 1 g
  KIDNEY_TOTAL: 2.1 g
  ALP: 1770.4 IU/L
  ALT: 48 IU/L
  AST: 72.6 IU/L
  BUN: 17.4 mg/dL
  CRE: 0.2 mg/dL
  DBIL: 0.018 mg/dL
  GLC: 191.2 mg/dL
  IP: 7.2 mg/dL
  K: 4.3 meq/L
  LDH: 76.2 IU/L
  Na: 142 meq/L
  PL: 145.4 mg/dL
  RALB: 2.7 g/dL
  TBIL: 0.034 mg/dL
  TC: 75.8 mg/dL
  TG: 106.4 mg/dL
  TP: 5.7 g/dL
  gamma-GTP: 1.4 IU/L
[3]
  TERMINAL_BW: 310 g
  APTT: 16.2 s
  Bas: 0%
  Eos: 1%
  Fbg: 310.4 mg/dL
  Hb: 14 g/dL
  Ht: 40.7%
  Lym: 77.2%
  MCH: 20.9 pg
  MCHC: 34.5%
  MCV: 60.6 fL
  Mono: 2.4%
  Neu: 18.8%
  Plat: 101.5 x10_4/uL
  RBC: 671.4 x10_4/ul
  Ret: 4.6%
  WBC: 80.3 x10_2/uL
  KIDNEY_L: 1.2 g
  KIDNEY_R: 1.2 g
  KIDNEY_TOTAL: 2.4 g
  ALP: 1433.6 IU/L
  ALT: 42.8 IU/L
  AST: 69 IU/L
  BUN: 18.8 mg/dL
  CRE: 0.2 mg/dL
  DBIL: 0.014 mg/dL
  GLC: 191.4 mg/dL
  IP: 6.8 mg/dL
  K: 4.1 meq/L
  LDH: 69.6 IU/L
  Na: 142.8 meq/L
  PL: 148.6 mg/dL
  RALB: 2.7 g/dL
  TBIL: 0.026 mg/dL
  TC: 71.4 mg/dL
  TG: 153.8 mg/dL
  TP: 6 g/dL
  gamma-GTP: 1 IU/L
[4]
  TERMINAL_BW: 397.6 g
  APTT: 18 s
  Bas: 0%
  Eos: 1.4%
  Fbg: 282 mg/dL
  Hb: 14.9 g/dL
  Ht: 42%
  Lym: 79%
  MCH: 19.7 pg
  MCHC: 35.4%
  MCV: 55.8 fL
  Mono: 2.6%
  Neu: 16.4%
  Plat: 112.2 x10_4/uL
  RBC: 754.2 x10_4/ul
  Ret: 2.4%
  WBC: 93.4 x10_2/uL
  KIDNEY_L: 1.4 g
  KIDNEY_R: 1.3 g
  KIDNEY_TOTAL: 2.7 g
  ALP: 1369.6 IU/L
  ALT: 43.6 IU/L
  AST: 67.2 IU/L
  CRE: 0.2 mg/dL
  DBIL: 0.022 mg/dL
  GLC: 185 mg/dL
  IP: 6.1 mg/dL
  K: 4.1 meq/L
  LDH: 81.4 IU/L
  Na: 143.6 meq/L
  PL: 140.6 mg/dL
  RALB: 2.8 g/dL
  TBIL: 0.034 mg/dL
  TC: 66 mg/dL
  TG: 166.4 mg/dL
  TP: 6.2 g/dL
  gamma-GTP: 1.4 IU/L
[5]
  TERMINAL_BW: 208.5 g
  APTT: 18.1 s
  Bas: 0%
  Eos: 1.2%
  Fbg: 285 mg/dL
  Hb: 13.6 g/dL
  Ht: 39.2%
  Lym: 78%
  MCH: 21.3 pg
  MCHC: 34.7%
  MCV: 61.5 fL
  Mono: 3.2%
  Neu: 17.2%
  Plat: 113.2 x10_4/uL
  RBC: 637.4 x10_4/ul
  Ret: 6.3%
  WBC: 77.5 x10_2/uL
  KIDNEY_L: 0.9 g
  KIDNEY_R: 0.9 g
  KIDNEY_TOTAL: 1.8 g
  ALP: 1907.8 IU/L
  ALT: 51 IU/L
  AST: 75.4 IU/L
  BUN: 16.6 mg/dL
  CRE: 0.2 mg/dL
  DBIL: 0.014 mg/dL
  GLC: 196.2 mg/dL
  IP: 8.4 mg/dL
  K: 4.2 meq/L
  LDH: 86 IU/L
  Na: 142.6 meq/L
  PL: 145.2 mg/dL
  RALB: 2.7 g/dL
  TBIL: 0.038 mg/dL
  TC: 85.4 mg/dL
  TG: 58.2 mg/dL
  TP: 5.7 g/dL
  gamma-GTP: 1.2 IU/L
[6]
  TERMINAL_BW: 235 g
  APTT: 16.4 s
  Bas: 0%
  Eos: 1.2%
  Fbg: 311.4 mg/dL
  Hb: 14 g/dL
  Ht: 40.1%
  Lym: 75.6%
  MCH: 21.1 pg
  MCHC: 34.9%
  MCV: 60.4 fL
  Mono: 2.8%
  Neu: 20.2%
  Plat: 106.3 x10_4/uL
  RBC: 665.6 x10_4/ul
  Ret: 5.1%
  WBC: 94.7 x10_2/uL
  KIDNEY_L: 1 g
  KIDNEY_R: 1 g
  KIDNEY_TOTAL: 2 g
  ALP: 1566.6 IU/L
  ALT: 44.8 IU/L
  AST: 72.4 IU/L
  BUN: 17.4 mg/dL
  CRE: 0.2 mg/dL
  DBIL: 0.018 mg/dL
  GLC: 193 mg/dL
  IP: 7.9 mg/dL
  K: 4.1 meq/L
  LDH: 88.8 IU/L
  Na: 142 meq/L
  PL: 145 mg/dL
  RALB: 2.8 g/dL
  TBIL: 0.036 mg/dL
  TC: 77 mg/dL
  TG: 116.8 mg/dL
  TP: 6 g/dL
  gamma-GTP: 1.8 IU/L
[7]
  TERMINAL_BW: 276.3 g
  APTT: 17.9 s
  Bas: 0%
  Eos: 1%
  Fbg: 284.2 mg/dL
  Hb: 14.7 g/dL
  Ht: 42.7%
  Lym: 77.6%
  MCH: 20.2 pg
  MCHC: 34.6%
  MCV: 58.4 fL
  Mono: 3.2%
  Neu: 17.6%
  Plat: 101.4 x10_4/uL
  RBC: 731 x10_4/ul
  Ret: 3.8%
  WBC: 106 x10_2/uL
  KIDNEY_L: 1.1 g
  KIDNEY_R: 1.1 g
  KIDNEY_TOTAL: 2.2 g
  ALP: 1470 IU/L
  ALT: 46.2 IU/L
  AST: 71.4 IU/L
  BUN: 17.8 mg/dL
  CRE: 0.2 mg/dL
  DBIL: 0.012 mg/dL
  GLC: 179.8 mg/dL
  IP: 8.1 mg/dL
  K: 4.3 meq/L
  LDH: 53.8 IU/L
  Na: 142.8 meq/L
  PL: 141.6 mg/dL
  RALB: 2.7 g/dL
  TBIL: 0.022 mg/dL
  TC: 76 mg/dL
  TG: 106.6 mg/dL
  TP: 6 g/dL
  gamma-GTP: 1.2 IU/L
[8]
  TERMINAL_BW: 344.8 g
  APTT: 20.2 s
  Bas: 0%
  Eos: 1.2%
  Fbg: 290.6 mg/dL
  Hb: 16.2 g/dL
  Ht: 45.8%
  Lym: 78.8%
  MCH: 19.9 pg
  MCHC: 35.4%
  MCV: 56.2 fL
  Mono: 1.8%
  Neu: 17.8%
  Plat: 100.9 x10_4/uL
  RBC: 815.6 x10_4/ul
  Ret: 2.3%
  WBC: 90.5 x10_2/uL
  KIDNEY_L: 1.3 g
  KIDNEY_R: 1.3 g
  KIDNEY_TOTAL: 2.6 g
  ALP: 1314.6 IU/L
  ALT: 46.8 IU/L
  AST: 68.6 IU/L
  BUN: 17.2 mg/dL
  CRE: 0.2 mg/dL
  DBIL: 0.018 mg/dL
  GLC: 181 mg/dL
  IP: 6.6 mg/dL
  K: 4.1 meq/L
  LDH: 83.4 IU/L
  Na: 144.2 meq/L
  PL: 139.6 mg/dL
  RALB: 3 g/dL
  TBIL: 0.028 mg/dL
  TC: 79.2 mg/dL
  TG: 74.6 mg/dL
  TP: 6.4 g/dL
  gamma-GTP: 1 IU/L
